Data taken from publication PMC6234012 (Nature structural & molecular biology, 2018).
No end group written: not given here.

Assays:
[1] = system: Ku; details: fluorescence polarization with labelled peptides; cited from earlier work
[2] = system: Ku80; details: yeast two-hybrid experiments or EMSA; cited from earlier work
[3] = system: DSBs sites in XLF-defective BuS cells; assay: Live cell recruitment of CFP-XLF to laser sites, BuS cells; type: cell-based, human; details: for Recruitment to laser-irradiated sites, full-length XLF: CFP-XLF in BuS cells, n=20 cells, WT vs L297W p=0.0093, WT vs L297E p<0.0001
[4] = target: KuFL (full length Ku70/Ku80) (Homo sapiens, UniProt P12956+P13010); assay: ITC, ligand into KuFL; type: binding; details: 25°C, pH 8.0, KuFL in cell, line 9 deduced from the first injection point
[5] = target: T1, Ku70 full length;Ku80 full length (human?;human?, UniProt P12956;P13010 1-609;1-732, |); assay: ITC
[6] = target: Ku70cc;Ku80cc;pXLFs (short X-KBM peptide) (human?;human?;human?, UniProt P12956;P13010;Q9H9Q4 1-544;1-551;287-299, ||); assay: X-ray crystallography 2.9 A
[7] = target: Ku70cc;Ku80cc;pXLF (long X-KBM peptide) (human?;human?;human?, UniProt P12956;P13010;Q9H9Q4 1-544;1-551;281-299, ||); assay: X-ray crystallography 2.8 A
[8] = target: Ku70cc;Ku80cc;pAPLF (A-KBM peptide) (human?;human?;human?, UniProt P12956;P13010;Q8IW19 1-544;1-551;174-191, ||); assay: X-ray crystallography 3.0 A
[9] = target: T1, Ku70 full length;Ku80 full length; assay: switchSENSE
[10] = target: Ku70 full length;Ku80 full length;XLF full length (human?;human?;human?, UniProt P12956;P13010;Q9H9Q4 1-609;1-732;1-299, ||); assay: EMSA
Chain of Ku70 full length;Ku80 full length;XLF full length (P12956 whole entry, chain 1 of 3): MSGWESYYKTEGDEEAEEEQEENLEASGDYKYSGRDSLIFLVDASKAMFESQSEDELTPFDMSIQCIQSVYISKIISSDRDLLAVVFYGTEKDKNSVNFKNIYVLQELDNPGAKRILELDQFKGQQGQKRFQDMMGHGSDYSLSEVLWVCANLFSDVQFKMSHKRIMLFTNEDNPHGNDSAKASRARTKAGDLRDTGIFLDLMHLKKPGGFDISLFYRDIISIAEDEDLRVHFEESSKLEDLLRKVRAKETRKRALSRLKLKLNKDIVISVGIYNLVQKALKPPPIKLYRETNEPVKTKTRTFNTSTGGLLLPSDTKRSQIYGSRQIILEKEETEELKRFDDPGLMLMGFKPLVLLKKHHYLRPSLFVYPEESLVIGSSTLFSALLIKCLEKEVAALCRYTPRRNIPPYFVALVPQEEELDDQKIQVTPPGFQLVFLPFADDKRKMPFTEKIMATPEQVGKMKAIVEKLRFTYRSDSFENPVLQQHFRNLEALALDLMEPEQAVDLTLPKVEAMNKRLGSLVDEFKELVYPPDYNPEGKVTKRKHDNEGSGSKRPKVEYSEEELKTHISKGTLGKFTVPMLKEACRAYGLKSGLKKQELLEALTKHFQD
Chain of Ku70 full length;Ku80 full length;XLF full length (P13010 whole entry, chain 2 of 3): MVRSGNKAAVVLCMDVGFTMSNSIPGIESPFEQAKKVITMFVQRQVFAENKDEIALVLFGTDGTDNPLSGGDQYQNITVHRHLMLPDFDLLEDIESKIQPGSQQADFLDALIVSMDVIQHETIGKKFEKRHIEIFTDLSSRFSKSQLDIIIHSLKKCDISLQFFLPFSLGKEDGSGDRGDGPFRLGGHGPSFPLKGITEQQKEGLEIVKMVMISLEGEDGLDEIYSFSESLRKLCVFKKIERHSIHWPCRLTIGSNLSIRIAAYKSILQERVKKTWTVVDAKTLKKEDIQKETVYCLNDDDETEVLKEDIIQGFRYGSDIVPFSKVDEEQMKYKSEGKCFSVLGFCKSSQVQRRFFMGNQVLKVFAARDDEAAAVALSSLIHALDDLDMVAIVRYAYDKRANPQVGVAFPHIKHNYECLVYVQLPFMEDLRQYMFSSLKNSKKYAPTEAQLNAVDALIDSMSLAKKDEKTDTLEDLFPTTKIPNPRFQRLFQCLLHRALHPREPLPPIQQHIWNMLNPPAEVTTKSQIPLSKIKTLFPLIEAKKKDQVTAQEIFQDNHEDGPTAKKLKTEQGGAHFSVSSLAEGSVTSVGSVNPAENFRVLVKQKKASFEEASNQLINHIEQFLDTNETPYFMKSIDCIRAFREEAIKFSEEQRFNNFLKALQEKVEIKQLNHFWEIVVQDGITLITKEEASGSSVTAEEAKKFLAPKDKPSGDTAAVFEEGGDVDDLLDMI
Chain of Ku70 full length;Ku80 full length;XLF full length (Q9H9Q4 whole entry, chain 3 of 3): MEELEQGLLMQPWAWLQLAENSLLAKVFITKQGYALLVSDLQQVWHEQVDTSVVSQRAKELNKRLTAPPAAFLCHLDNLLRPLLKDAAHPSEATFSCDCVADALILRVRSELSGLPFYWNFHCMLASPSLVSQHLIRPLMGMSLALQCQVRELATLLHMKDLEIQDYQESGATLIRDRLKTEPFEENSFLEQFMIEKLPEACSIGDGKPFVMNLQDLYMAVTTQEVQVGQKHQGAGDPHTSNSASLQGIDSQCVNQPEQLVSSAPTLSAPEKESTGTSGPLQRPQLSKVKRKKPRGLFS

T1 sequence (P12956 whole entry, chain 1 of 2): as the sequence (P12956 whole entry, chain 1 of 3) above
T1 sequence (P13010 whole entry, chain 2 of 2): as the sequence (P13010 whole entry, chain 2 of 3) above
Chain of KuFL (full length Ku70/Ku80) (P13010 whole entry): as the sequence (P13010 whole entry, chain 2 of 3) above
Chain of KuFL (full length Ku70/Ku80) (P12956 whole entry): as the sequence (P12956 whole entry, chain 1 of 3) above
Chain of Ku70cc;Ku80cc;pXLFs (short X-KBM peptide) (P12956 1-544, chain 1 of 2): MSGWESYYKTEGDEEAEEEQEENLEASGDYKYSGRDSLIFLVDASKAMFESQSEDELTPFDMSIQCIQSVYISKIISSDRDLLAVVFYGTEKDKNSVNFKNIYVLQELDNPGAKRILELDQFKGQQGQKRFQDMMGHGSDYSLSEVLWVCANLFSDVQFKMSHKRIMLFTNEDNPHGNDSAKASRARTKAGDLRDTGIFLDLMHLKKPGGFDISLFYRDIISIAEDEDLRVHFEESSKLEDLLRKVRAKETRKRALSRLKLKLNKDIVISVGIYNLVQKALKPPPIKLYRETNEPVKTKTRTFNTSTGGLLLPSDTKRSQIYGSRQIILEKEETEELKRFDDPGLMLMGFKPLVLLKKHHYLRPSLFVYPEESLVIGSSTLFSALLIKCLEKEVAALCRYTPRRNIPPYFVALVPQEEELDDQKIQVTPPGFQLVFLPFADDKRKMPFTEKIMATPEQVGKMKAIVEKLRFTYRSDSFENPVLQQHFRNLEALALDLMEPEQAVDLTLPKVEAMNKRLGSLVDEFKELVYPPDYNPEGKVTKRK
Chain of Ku70cc;Ku80cc;pXLFs (short X-KBM peptide) (P13010 1-551, chain 2 of 2): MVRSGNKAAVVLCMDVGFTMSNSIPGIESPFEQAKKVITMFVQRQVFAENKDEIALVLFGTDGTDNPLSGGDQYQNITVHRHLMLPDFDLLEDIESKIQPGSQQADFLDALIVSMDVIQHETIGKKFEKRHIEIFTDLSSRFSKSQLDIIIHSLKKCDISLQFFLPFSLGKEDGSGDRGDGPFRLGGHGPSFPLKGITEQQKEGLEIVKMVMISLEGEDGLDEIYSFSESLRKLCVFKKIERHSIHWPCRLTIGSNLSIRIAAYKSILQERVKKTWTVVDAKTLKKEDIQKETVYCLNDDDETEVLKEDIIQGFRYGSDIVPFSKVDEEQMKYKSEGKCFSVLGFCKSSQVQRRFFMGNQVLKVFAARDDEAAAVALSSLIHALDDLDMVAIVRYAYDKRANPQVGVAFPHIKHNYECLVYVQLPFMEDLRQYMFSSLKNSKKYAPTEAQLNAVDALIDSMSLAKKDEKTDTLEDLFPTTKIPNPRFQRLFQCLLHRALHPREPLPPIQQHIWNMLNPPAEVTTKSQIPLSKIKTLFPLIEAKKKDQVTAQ
Chain of Ku70cc;Ku80cc;pXLF (long X-KBM peptide) (P12956 1-544, chain 1 of 2): as the sequence (P12956 1-544, chain 1 of 2) above
Chain of Ku70cc;Ku80cc;pXLF (long X-KBM peptide) (P13010 1-551, chain 2 of 2): as the sequence (P13010 1-551, chain 2 of 2) above
Chain of Ku70cc;Ku80cc;pAPLF (A-KBM peptide) (P12956 1-544, chain 1 of 2): as the sequence (P12956 1-544, chain 1 of 2) above
Chain of Ku70cc;Ku80cc;pAPLF (A-KBM peptide) (P13010 1-551, chain 2 of 2): as the sequence (P13010 1-551, chain 2 of 2) above

In the case of `CC(C)C[C@H](NC(=O)CNC(=O)[C@H](CCCNC(=N)N)NC(=O)[C@@H]1CCCN1C(=O)[C@H](CCCCN)NC(=O)[C@H](CCCCN)NC(=O)[C@H](CCCNC(=N)N)NC(=O)[C@H](CCCCN)NC(=O)[C@@H](NC(=O)[C@H](CCCCN)NC(=O)[C@H](CO)NC(=O)[C@H](CC(C)C)NC(=O)[C@H](CCC(N)=O)NC(=O)[C@@H]1CCCN1C(=O)[C@H](CCCNC(=N)N)NC(=O)[C@H](CCC(N)=O)NC(=O)[C@@H](N)CC(C)C)C(C)C)C(=O)N[C@@H](Cc1ccccc1)C(=O)N[C@@H](CO)C(=O)O` [pXLF], the Interaction detected [1] is listed as “not detected”.

In the case of APLF: APTX and PNKP-like factor, the “Effect of Ku80 mutations at L68, Y74, I112 on interaction with APLF” value [2] is listed as “greatly reduce or disrupt the interactions”.

In the case of “F298G: XLF mutant in the extreme C-terminus”, the “Recruitment to laser-irradiated sites, full-length XLF” value (“Recruitment to laser-irradiated sites” below) [3] is reported as “important reduction of the recruitment”.

In the case of “G296W: XLF mutant in the extreme C-terminus”, the “Recruitment to laser-irradiated sites” value [3] is reported as “important reduction of the recruitment”.

In the case of “L115D XLF: XLF mutant unable to interact with XRCC4”, the “Recruitment to laser-irradiated sites” value [3] is reported as “efficient recruitment” and the “Effect of APLF knock-down on XLF recruitment” value ([3]; CFP-XLF, APLF knock-down) is reported as “insensitive to APLF knock-down”.

LQRPQLSKVKRKKPRGWFS [pXLF(LW)] showed a ΔH [4] of -12.1 ± 2.0 kcal/M.

For “S299E: XLF mutant in the extreme C-terminus”, the “Recruitment to laser-irradiated sites” value [3] was “important reduction of the recruitment”.

For “XLF L115D/L297E: XLF L115D/L297E double mutant”, the “Recruitment to laser-irradiated sites” value [3] was “impaired”.

B1: DNA 18bp (CN3/CN4) (dsDNA)
DNA 1: GTTATCCGAGCGTGAGAC
DNA 2: GTCTCACGCTCGGATAAC
With B1 the Kd [5] was 4.1 ± 0.7 nM.

B2: hDNA (CN1/CN2 hairpin DNA) (structured_DNA)
DNA 1: CGCGCCCAGCTTTCCCAGCTAATAAACTAAAAAC
DNA 2: GTTTTTAGTTTATTGGGCGCG
B2: binds [6]; binds [7]; binds [8].

B3: 48bp DNA nanolever (NLB48) (dsDNA)
DNA 1: TAGTCGTAAGCTGATATGGCTGATTAGTCGGAAGCATCGAACGCTGAT
DNA 2: ATCAGCGTTCGATGCTTCCGACTAATCAGCCATATCAGCTTACGACTA
B3: binds [9].

B4: 50bp DNA (MM 50bp up/do) (dsDNA)
DNA 1: TAAATGCCAATGCTGCTGATACGTACTCGGACTGATTCGGAACTGTAACG
DNA 2: CGTTACAGTTCCGAATCAGTCCGAGTACGTATCAGCAGCATTGGCATTTA
B4: binds [10].
